Experimental data taken from ChEMBL document CHEMBL1221360, “Synthesis and structure-activity relationships of sinenxan A derivatives as multidrug resistance reversal agents” (Bioorg Med Chem Lett, 2010).
Active and inactive are the calls of the source. No cut-off for these calls is given here.

Columns and labels:
[1] = system: KB; test: Cytotoxicity against human KB cells; type: functional, cell-based
[2] = system: KB/V; test: Reversal of human P-glycoprotein-mediated multidrug resistance in human KB/V cells as reduction of vincristine IC50 at 10 uM; type: cell-based
[3] = system: KB/V; test: Partial reversal of human P-glycoprotein-mediated multidrug resistance in human KB/V cells as reduction of vincristine IC50 at 10 uM; type: cell-based
[4] = system: KB/V; test: Ratio of compound reversal of P-glycoprotein-mediated multidrug resistance to verapamil reversal of P-glycoprotein-mediated multidrug resistance in human KB/V cells; type: cell-based

Structure (SMILES): C=C1[C@@H](OC(=O)c2ccco2)CC[C@@]2(C)C[C@H](OC(C)=O)C3=C(C)CC[C@@H]([C@@H](OC(C)=O)[C@H]12)C3(C)C
- Activity [1]: inactive
- Activity [2]: inactive

Structure (SMILES): C=C1[C@@H](OC(=O)c2cccnc2)CC[C@@]2(C)C[C@H](OC(C)=O)C3=C(C)CC[C@@H]([C@@H](OC(C)=O)[C@H]12)C3(C)C
- Activity [1]: inactive
- Activity [3]: Active

Structure (SMILES): C=C1[C@@H](OC(=O)Cc2cccs2)CC[C@@]2(C)C[C@H](OC(C)=O)C3=C(C)CC[C@@H]([C@@H](OC(C)=O)[C@H]12)C3(C)C
- Activity [1]: inactive
- Activity [2]: inactive

Structure (SMILES): C=C1[C@@H](OC(=O)Cc2ccccc2)CC[C@@]2(C)C[C@H](OC(C)=O)C3=C(C)CC[C@@H]([C@@H](OC(C)=O)[C@H]12)C3(C)C
- Activity [1]: inactive
- Activity [2]: inactive

Structure (SMILES): C=C1[C@@H](OC(=O)CCC(=O)O)CC[C@@]2(C)C[C@H](OC(C)=O)C3=C(C)CC[C@@H]([C@@H](OC(C)=O)[C@H]12)C3(C)C
- Activity [1]: inactive
- Activity [2]: inactive

Structure (SMILES): C=C1[C@@H](OC(=O)/C=C/c2ccccc2)CC[C@@]2(C)C[C@H](OC(C)=O)C3=C(C)CC[C@@H]([C@@H](OC(C)=O)[C@H]12)C3(C)C
- Activity [1]: inactive
- Activity [2]: inactive

Structure (SMILES): C=C1[C@@H](OC(=O)c2cccnc2)CC[C@@]2(C)C[C@H](OC(C)=O)C3=C(C)C(=O)C[C@@H]([C@@H](OC(C)=O)[C@H]12)C3(C)C
- Activity [1]: inactive
- Activity [3]: Active

Structure (SMILES): C=C1[C@@H](OC(=O)c2ccco2)CC[C@@]2(C)C[C@H](OC(C)=O)C3=C(C)C(=O)C[C@@H]([C@@H](OC(C)=O)[C@H]12)C3(C)C
- Activity [1]: inactive
- Activity [3]: Active

Structure (SMILES): C=C1[C@@H](OC(=O)CCCc2ccccc2)CC[C@@]2(C)C[C@H](OC(C)=O)C3=C(C)CC[C@@H]([C@@H](OC(C)=O)[C@H]12)C3(C)C
- Activity [1]: inactive
- Activity [2]: inactive

Structure (SMILES): C=C1[C@@H](OC(=O)CCc2cccs2)CC[C@@]2(C)C[C@H](OC(C)=O)C3=C(C)C(=O)C[C@@H]([C@@H](OC(C)=O)[C@H]12)C3(C)C
- Activity [1]: inactive
- Activity [2]: inactive

Structure (SMILES): C=C1[C@@H](OC(=O)CC2CCCCC2)CC[C@@]2(C)C[C@H](OC(C)=O)C3=C(C)C(=O)C[C@@H]([C@@H](OC(C)=O)[C@H]12)C3(C)C
- Activity [1]: inactive
- Ratio [4]: 6.6
- Activity [2]: Active

Structure (SMILES): C=C1[C@@H](OC(=O)CCCCc2ccccc2)CC[C@@]2(C)C[C@H](OC(C)=O)C3=C(C)CC[C@@H]([C@@H](OC(C)=O)[C@H]12)C3(C)C
- Activity [1]: inactive
- Activity [3]: Active

Structure (SMILES): C=C1[C@@H](OC(=O)CCCCc2ccccc2)CC[C@@]2(C)C[C@H](OC(C)=O)C3=C(C)C(=O)C[C@@H]([C@@H](OC(C)=O)[C@H]12)C3(C)C
- Activity [1]: inactive
- Activity [2]: inactive

Structure (SMILES): C=C1[C@@H](OC(=O)/C=C\c2ccco2)CC[C@@]2(C)C[C@H](OC(C)=O)C3=C(C)C(=O)C[C@@H]([C@@H](OC(C)=O)[C@H]12)C3(C)C
- Activity [1]: inactive
- Ratio [4]: 1.67
- Activity [2]: Active

Structure (SMILES): C=C1[C@@H](OC(=O)CCc2cccnc2)CC[C@@]2(C)C[C@H](OC(C)=O)C3=C(C)C(=O)C[C@@H]([C@@H](OC(C)=O)[C@H]12)C3(C)C
- Activity [1]: inactive
- Ratio [4]: 1.42
- Activity [2]: Active

Structure (SMILES): C=C1[C@@H](OC(=O)Cc2cccc3ccccc23)CC[C@@]2(C)C[C@H](OC(C)=O)C3=C(C)C(=O)C[C@@H]([C@@H](OC(C)=O)[C@H]12)C3(C)C
- Activity [1]: inactive
- Activity [2]: inactive

Structure (SMILES): C=C1[C@@H](OC(=O)COc2ccc3ccccc3c2)CC[C@@]2(C)C[C@H](OC(C)=O)C3=C(C)CC[C@@H]([C@@H](OC(C)=O)[C@H]12)C3(C)C
- Activity [1]: inactive
- Activity [3]: Active

Structure (SMILES): C=C1[C@@H](OC(=O)CCC2CCCCC2)CC[C@@]2(C)C[C@H](OC(C)=O)C3=C(C)CC[C@@H]([C@@H](OC(C)=O)[C@H]12)C3(C)C
- Activity [1]: inactive
- Activity [2]: inactive

Structure (SMILES): C=C1[C@@H](OC(=O)CCC2CCCCC2)CC[C@@]2(C)C[C@H](OC(C)=O)C3=C(C)C(=O)C[C@@H]([C@@H](OC(C)=O)[C@H]12)C3(C)C
- Activity [1]: inactive
- Activity [3]: Active

Structure (SMILES): C=C1[C@@H](OC(=O)[C@@H]2CCCN2)CC[C@@]2(C)C[C@H](OC(C)=O)C3=C(C)C(=O)CC([C@@H](OC(C)=O)[C@H]12)C3(C)C (single isomer, unassigned)
- Activity [1]: inactive
- Ratio [4]: 21.2
- Activity [2]: Active

Structure (SMILES): C=C1[C@@H](OC(=O)/C=C\c2ccco2)CC[C@@]2(C)C[C@H](OC(C)=O)C3=C(C)CC[C@@H]([C@@H](OC(C)=O)[C@H]12)C3(C)C
- Activity [1]: inactive
- Activity [2]: inactive

Structure (SMILES): COc1ccc(CCN(C)CCCC(C#N)(c2ccc(OC)c(OC)c2)C(C)C)cc1OC (stereo not drawn)
- Activity [1]: inactive
- Activity [2]: inactive

Structure (SMILES): C=C1[C@@H](OC(=O)CCCc2cccs2)CC[C@@]2(C)C[C@H](OC(C)=O)C3=C(C)C(=O)C[C@@H]([C@@H](OC(C)=O)[C@H]12)C3(C)C
- Activity [1]: inactive
- Activity [3]: Active

Structure (SMILES): C=C1[C@@H](OC(=O)Cc2cccs2)CC[C@@]2(C)C[C@H](OC(C)=O)C3=C(C)C(=O)C[C@@H]([C@@H](OC(C)=O)[C@H]12)C3(C)C
- Activity [1]: inactive
- Activity [2]: inactive

Structure (SMILES): C=C1[C@@H](OC(=O)Cc2cc(OC)ccc2OC)CC[C@@]2(C)C[C@H](OC(C)=O)C3=C(C)CC[C@@H]([C@@H](OC(C)=O)[C@H]12)C3(C)C
- Activity [1]: inactive
- Activity [2]: inactive

Structure (SMILES): C=C1[C@@H](OC(=O)CCc2ccccc2)CC[C@@]2(C)C[C@H](OC(C)=O)C3=C(C)CC[C@@H]([C@@H](OC(C)=O)[C@H]12)C3(C)C
- Activity [1]: inactive
- Activity [2]: inactive

Structure (SMILES): C=C1[C@@H](OC(=O)COc2ccc3ccccc3c2)CC[C@@]2(C)C[C@H](OC(C)=O)C3=C(C)C(=O)C[C@@H]([C@@H](OC(C)=O)[C@H]12)C3(C)C
- Activity [1]: inactive
- Activity [2]: inactive
